Data on 32 molecules can be found in patent publication US20050245563A1 (Millennium Pharmaceuticals, Inc., priority 2003, published 2005).

Broadly, the IC50 is the point on the concentration scale where inhibition reaches its midpoint. The low end stands for greater potency in that assay, the high end for weaker potency in that assay.

The target of this experiment is T1, human Chk1 (GST-Chk1) (Homo sapiens, UniProt O14757).
T1 construct: made in house; host or cells: insect cells (baculovirus, Bac-to-Bac)
T1 sequence (O14757 1-476): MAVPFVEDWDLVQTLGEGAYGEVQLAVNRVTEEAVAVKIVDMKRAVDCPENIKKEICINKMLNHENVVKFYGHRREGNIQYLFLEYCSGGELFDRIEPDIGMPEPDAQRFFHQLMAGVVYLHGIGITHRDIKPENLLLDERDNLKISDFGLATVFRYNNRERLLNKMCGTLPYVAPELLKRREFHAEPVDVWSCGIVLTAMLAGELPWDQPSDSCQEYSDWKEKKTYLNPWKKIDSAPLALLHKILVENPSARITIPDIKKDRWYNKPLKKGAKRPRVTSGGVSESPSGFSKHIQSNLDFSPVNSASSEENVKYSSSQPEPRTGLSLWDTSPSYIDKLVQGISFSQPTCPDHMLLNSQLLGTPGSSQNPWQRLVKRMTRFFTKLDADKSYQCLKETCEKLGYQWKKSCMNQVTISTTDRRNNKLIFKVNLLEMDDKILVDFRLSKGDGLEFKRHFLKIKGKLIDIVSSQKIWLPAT
The experiment is described as follows: Chk1 DELFIA kinase assay (2 nM GST-Chk1, 600 μM ATP). It is filed as biochemical. Conditions: Biotin-GLYRSPSMPEN-amide substrate. The method, then:
Recombinant human Chk1 was expressed as a fusion protein with glutathione S-transferase at the amino-terminus (GST-Chk1) using standard baculovirus vectors and (Bac-to-Bac®) insect cell expression system purchased from GIBCO™ Invitrogen. Recombinant protein expressed in insect cells was purified using glutathione sepharose (Amersham Biotech) using standard procedures described by the manufacturer.
Chk1 DELFIA® Kinase Assay:
Assays (25 μL) utilized 2 nM GST-Chk1 containing 10 mM Tris, pH 7.5, 20% glycerol, 50 mM sodium chloride (NaCl), 0.01% Surfact-Amps® 20, 1 μM peptide stubstrate (Biotin-GLYRSPSMPEN-amide) (SEQ ID NO: 3), 01.% BSA, 2 mM DTT, 4% DMSO, 600 μM ATP, 10 MM MgCl2 and reacted for 50 minutes at room temperature. Reactions were terminated with 100 μL of Stop buffer containing 1% BSA, 10 mM Tris, pH 8.0, 150 mM NaCl, 100 mM EDTA. Stopped reactions (100 μL) were transferred to 96 well NeutrAvidin plates (Pierce) to capture the biotin-peptide substrate during a 30 minute room temperature incubation. Wells were washed and reacted with 100 μL PerkinElmer Wallac Assay Buffer containing 21.5 ng/ml anti-phospho-Ser216-Cdc25c rabbit polyclonal antibody from Cell Signaling Technology (Beverly, Mass.) and 292 ng/ml europium labeled anti-rabbit-IgG for 1 hour at room temperature. Wells were washed and europium released from the bound antibody by addition of Enhancement Solution (100 μL) (PerkinElmer Wallac) and detected using a Perkin Elmer Wallac Envison™ 2100 multilabel reader using standard manufacturer settings.

`CNCC#Cc1ccc2c(c1)c1n[nH]c(C)c1c(=O)n2CCCN` [Example 274, 5-(3-Amino-propyl)-3-methyl 8-(3-methylamino-prop-1-ynyl]-2,5-dihydro-pyrazolo[4,3-c]quinolin-4-one]: the concentration for half-maximal inhibition (IC50) is less than 1 µM.
The value for `NCCCn1c(=O)c2c(CCO)[nH]nc2c2cc(Cl)ccc21` [Compound 316, 5-(3-Amino-propyl)-8-chloro-3-(2-hydroxy-ethyl)-2,5-dihydro-pyrazolo[4,3-c]quinolin-4-one] was less than 1 µM.
On to `CCCc1[nH]nc2c1c(=O)n(CCCN)c1ccc(Cl)cc21` [Example 364, 5-(3-Amino-propyl)-8-chloro-3-propyl-2,5-dihydro-pyrazolo[4,3-c]quinolin-4-one], for which the 50% inhibitory concentration (IC50) was less than 1 µM.
The value for `CCc1[nH]nc2c1c(=O)n(CCCN)c1ccc(CCCN3CCCC3)cc21` [Example 330, 5-(3-Amino-propyl)-3-ethyl-8-(3-pyrrolidin-1-yl-propyl)-2,5-dihydro-pyrazolo[4,3-c]quinolin-4-one] was less than 1 µM; that for `Cc1[nH]nc2c1c(=O)n(CCCN)c1ccc(NC(=O)CN(C)C)cc21` [Example 264, N-[5-(3-aminopropyl)-3-methyl-4-oxo4,5-dihydro-2H-pyrazolo[4,3-c]quinolin-8-yl]-2-dimethylaminoacetamide] was less than 1 µM.
Molecule `C#Cc1ccc2c(c1)c1n[nH]c(C)c1c(=O)n2CCCN` [Example 291, 5-(3-Amino-propyl)-8-ethynyl-3-methyl-2,5-dihydro-pyrazolo[4,3-c]quinolin-4-one] had an IC50 of less than 1 µM.
In the case of `Cc1[nH]nc2c1c(=O)n(CCCN)c1c(Br)cc(Cl)cc21` [Compound 349, 5-(3-Amino-propyl)-6-bromo-8-chloro-3-methyl 2,5-dihydro-pyrazolo[4,3-c]quinolin-4-one], the IC50 is less than 1 µM.
Molecule `Cc1[nH]nc2c1c(=O)n(CC[C@@H](C)N)c1ccc(Cl)cc21` [Example 217, 5-(3R-Amino-butyl)-8-chloro 3-methyl-2,5-dihydro-pyrazolo[4,3-c]quinolin-4-one] had a half-maximal inhibitory concentration (IC50) of less than 1 µM.
As for `Cc1[nH]nc2c1c(=O)n(CCCN)c1ccc(C(=O)O)cc21` [Compound 266, 5-(3-Amino-propyl)-3-methyl-4-oxo-4,5-dihydro-2H-pyrazolo[4,3-c]quinoline-8-carboxylic acid], the 50% inhibitory concentration (IC50) is 1 to 10 µM.
The value for `COCCc1[nH]nc2c1c(=O)n(CCCN)c1ccc(C#CCN3CCCC3)cc21` [Example 305, 5-(3-Amino-propyl)-3-(2-methoxy-ethyl)-8-(3-pyrrolidin-1-yl-prop-1-ynyl)-2,5-dihydro-pyrazolo[4,3-c]quinolin-4-one] was less than 1 µM; that for `Cc1[nH]nc2c1c(=O)n(CCCN)c1ccc(I)cc21` [Compound 208, 5-(3-Amino-propyl)-8-iodo-3-methyl-2,5-dihydro-pyrazolo[4,3-c]quinolin-4-one] was less than 1 µM.
To `Cc1[nH]nc2c1c(=O)n(CCCN)c1ccc(OCC(C)C)cc21` [Example 259, 5-(3-Amino-propyl)-8-isobutoxy-3-methyl-2,5-dihydro-pyrazolo[4,3-c]quinolin-4-one] belongs less than 1 µM.
The value for `CCc1ccc2c(c1)c1n[nH]c(C)c1c(=O)n2CCCNC` [Example 300, 8-Ethyl-3-methyl-5-(3-methylamino-propyl)-2,5-dihydro-pyrazolo[4,3-c]quinolin-4-one] was less than 1 µM; that for `Cc1[nH]nc2c1c(=O)n(CCCN)c1ccc(CCc3ccccn3)cc21` [Example 299, 5-(3-Amino-propyl)-3-methyl-8-(2-pyridin-2-yl-thyl)-2,5-dihydro-pyrazolo[4,3-c]quinolin-4-one] was less than 1 µM; that for `Cc1[nH]nc2c1c(=O)n(CCCN)c1ccc(CCCN3CCCC3)cc21` [Example 297, 5-(3-Amino-propyl)-3-methyl-8-(3-pyrrolidin-1-yl-propyl)-2,5-dihydro-pyrazolo[4,3-c]quinolin-4-one] was less than 1 µM.
Consider `Cc1[nH]nc2c1c(=O)n(CCCN)c1ccc(CCCO)cc21` [Example 301, 5-(3-Amino-propyl)-8-(3-hydroxy-propyl)-3-methyl 2,5-dihydro-pyrazolo[4,3-c]quinolin-4-one], for which the IC50 is less than 1 µM.
Take `COC(=O)/C=C/c1ccc2c(c1)c1n[nH]c(C)c1c(=O)n2CCCN` [Compound 267, 3-[5-(3-Amino-propyl)-3-methyl-4-oxo-4,5-dihydro-2H-pyrazolo[4,3-c]quinolin-8-yl]-acrylic acid methyl ester]: the IC50 is less than 1 µM.
On to `Cc1[nH]nc2c1c(=O)n(CCC(O)Cn1ccnc1)c1ccc(Cl)cc21` (centres unmarked) [Compound 252, 8-Chloro-5-(3-hydroxy-4-imidazol-1-yl-butyl)-3-methyl-2,5-dihydro-pyrazolo[4,3-c]quinolin-4-one], for which the IC50 is less than 1 µM.
In turn, `COC(=O)CCc1ccc2c(c1)c1n[nH]c(C)c1c(=O)n2CCCN` [Compound 268, 3-[5-(3-Amino-propyl)-3-methyl-4-oxo-4,5-dihydro-2H-pyrazolo[4,3-c]quinolin-8-yl]-propionic acid methyl ester] came in with an IC50 of less than 1 µM.
Take `Cc1[nH]nc2c1c(=O)n(CCCN)c1cc(CCCN3CCCC3)ccc21` [Example 341, 5-(3-Amino-propyl)-3-methyl-7-(3-pyrrolidin-1-yl-propyl)-2,5-dihydro-pyrazolo[4,3-c]quinolin-4-one]: the IC50 was less than 1 µM.
Regarding `COCCCc1ccc2c(c1)c1n[nH]c(C)c1c(=O)n2CCCN` [Example 295, 5-(3-amino-propyl)-8-(3-methoxypropyl)-3-methyl-2,5-dihydro-pyrazolo[4,3-c]quinolin-4-one], the IC50 was less than 1 µM.
For the molecule `Cc1[nH]nc2c1c(=O)n(CCCN)c1ccc(OCc3ccccc3)cc21` [Example 257, 5-(3-Amino-propyl)-8-benzyloxy-3-methyl-2,5-dihydro-pyrazolo[4,3-c]quinolin-4-one], the IC50 is less than 1 µM.
As for `Cc1[nH]nc2c1c(=O)n(CC(=O)C1CCCN1)c1ccc(Cl)cc21` (centres unmarked) [Example 230, 8-Chloro-3-methyl-5-(2-oxo-2-pyrrolidin-2-yl-ethyl)-2,5-dihydro-pyrazolo[4,3-c]quinolin-4-one], the IC50 is less than 1 µM.
To `COC(=O)/C(=C/c1ccc2c(c1)c1n[nH]c(C)c1c(=O)n2CCCN)NC(C)=O` [Example 270, 2-Acetylamino-3-[5-(3-amino-propyl)-3-methyl-4-oxo-4,5-dihydro-2H-pyrazolo[4,3-c]quinolin-8-yl]-acrylic acid methyl ester] belongs less than 1 µM; to `CCCCOCCc1[nH]nc2c1c(=O)n(CCCN)c1ccc(Cl)cc21` [Example 322, 5-(3-Amino-propyl)-3-(2-butoxy-ethyl)-8-chloro-2,5-dihydro-pyrazolo[4,3-c]quinolin-4-one], less than 1 µM.
As to `Cc1[nH]nc2c1c(=O)n(CC(O)C1CCCN1)c1ccc(Cl)cc21` (centres unmarked) [Example 246, 8-Chloro-5-(2-hydroxy-2-pyrrolidin-2-yl-ethyl)-3-methyl-2,5-dihydro-pyrazolo[4,3-c]quinolin-4-one], the IC50 was less than 1 µM.
With `Cc1[nH]nc2c1c(=O)n(C[C@@H](C)CN)c1ccc(Cl)cc21` [Example 220, 5-(3-Amino-2S-methyl-propyl)-8-chloro-3-methyl-2,5-dihydro-pyrazolo[4,3-c]quinolin-4-one], the IC50 is less than 1 µM.
For `Cc1[nH]nc2c1c(=O)n(CCCN)c1cc(C(=O)NCCCCN(C)C)ccc21` [Example 338], the IC50 was less than 1 µM.
Consider `COCCc1[nH]nc2c1c(=O)n(C[C@@H]1CCCNC1)c1ccc(Cl)cc21` [Example 226, 8-Chloro-3-(2-methoxy-ethyl)-5R-piperidin-3-ylmethyl-2,5-dihydro-pyrazolo[4,3-c]quinolin-4-one], for which the half-inhibitory concentration (IC50) was less than 1 µM.
Molecule `NCCCn1c(=O)c2c(C3CCOC3)[nH]nc2c2cc(Cl)ccc21` (centres unmarked) [Example 327, 5-(3-Amino-propyl)-8-chloro-3-(tetrahydro-furan-3-yl)-2,5-dihydro-pyrazolo[4,3-c]quinolin-4-one] showed an IC50 of less than 1 µM.
For `CNCCCn1c(=O)c2c(CCOC)[nH]nc2c2cc(Cl)ccc21` [Example 237, 8-Chloro-3-(2-methoxy-ethyl)-5-(3-methylamino-propyl)-2,5-dihydro-pyrazolo[4,3-c]quinolin-4-one], the IC50 was less than 1 µM.
To `Cc1[nH]nc2c1c(=O)n(CCCNC(=O)c1ccc(Cl)cc1)c1ccc(CCCN3CCCC3)cc21` [Example 333] belongs less than 1 µM.
